# Experiments:
# [1] = system: ascitic tumor cells; assay: Ascitic tumor cells in the peritoneum of experimental animals; format: in vivo; details: pure fatty acid or fatty acid rich oils
# [2] = system: tumor cells; assay: Potentiation of anti-cancer drugs by PUFAs in tumor cells; format: cell-based; details: combination with the fatty acid
# [3] = system: TNF resistant L-929 tumor cells; assay: TNF resistant L-929 tumor cells in vitro; format: cell-based; details: for killing of TNF resistant L-929 tumor cells: in vitro; for sensitisation of TNF-resistant L-929 cells to TNF: prior treatment with the fatty acid
# [4] = system: tumor cells; assay: PUFAs on tumor cells and normal cells in vitro; format: cell-based; details: for tumor cell proliferation: in vitro; for selective killing of tumor cells versus normal cells: tumor cells and normal cells in vitro
# From the text: (§1) Tumor cells are not only deficient in PUFAs but also have low rate(s) of lipid peroxidation, contain relatively large amounts of antioxidants such as vitamin E and superoxide dismutase (SOD). It is also believed that low rates of lipid peroxidation and consequent low amounts of lipid peroxides in the cells can contribute to an increase in the mitotic process which ultimately leads to an increase in cell proliferation. Thus, a deficiency of PUFAs, high amounts of antioxidants and the presence of low amounts of lipid peroxides in the tumor cells can contribute to the growth of tumor cells.
# Essential fatty acids are precursors of eicosanoids and are important structural components of cell membranes. They also provide the substrates for the generation of lipid peroxidation products which have an inhibitory action on cell proliferation. Tumor cells are known to have low delta-6-desaturase activity, an enzyme necessary for the desaturation of dietary linoleic acid (LA, 18:2, n-6) and alpha-linolenic acid (ALA, 18:3, n-3) to their respective products. […] This selective tumoricidal action of fatty acids seems to be mediated by free radicals and lipid peroxides.
# [5] = system: skin papilloma; assay: Skin papilloma in mice; format: in vivo; details: pure fatty acid or fatty acid rich oils
# [6] = system: hepatoma; assay: Hepatoma in rats; format: in vivo; details: pure fatty acid or fatty acid rich oils
# [7] = system: KB-chR 8-5 cells; assay: Vincristine resistant KB-8-5 tumor cells; format: cell-based
# [8] = system: tumor cells; assay: Mixed culture of normal and tumor cells; format: cell-based; details: normal and tumor cells grown together
# From the text: as §1
# [9] = system: bone marrow cells; assay: Side effects of gamma-radiation and cis-platinum to bone marrow cells of mice; format: in vivo
# [10] = system: subcutaneous hemangioendothelioma; details: mice with subcutaneous hemangioendothelioma and disseminated intravascular coagulopathy; cited from earlier work
# [11] = molecular target: T1, alpha/beta sub-units of ATP synthase (Homo sapiens, UniProt P06576+P25705); details: human umbilical vein endothelial cells; cited from earlier work
# T1 construct: Using human umbilical endothelial vein endothelial cells; endogenous in cells; host or cells: human umbilical vein endothelial cells
# T1 sequence (P25705 44-553): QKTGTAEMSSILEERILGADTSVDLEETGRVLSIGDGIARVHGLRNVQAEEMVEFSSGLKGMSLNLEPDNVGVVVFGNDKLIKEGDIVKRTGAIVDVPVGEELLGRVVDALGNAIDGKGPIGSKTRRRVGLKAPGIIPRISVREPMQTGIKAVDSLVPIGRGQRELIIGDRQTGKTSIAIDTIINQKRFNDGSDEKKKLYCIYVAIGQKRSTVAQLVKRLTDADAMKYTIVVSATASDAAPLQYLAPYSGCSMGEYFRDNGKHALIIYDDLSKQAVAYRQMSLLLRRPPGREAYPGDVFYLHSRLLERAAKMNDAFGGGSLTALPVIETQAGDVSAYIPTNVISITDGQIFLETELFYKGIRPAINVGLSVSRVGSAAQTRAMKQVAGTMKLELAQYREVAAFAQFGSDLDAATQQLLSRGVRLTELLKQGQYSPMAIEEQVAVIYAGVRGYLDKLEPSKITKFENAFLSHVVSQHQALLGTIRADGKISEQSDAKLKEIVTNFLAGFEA
# T1 sequence (P06576 48-529): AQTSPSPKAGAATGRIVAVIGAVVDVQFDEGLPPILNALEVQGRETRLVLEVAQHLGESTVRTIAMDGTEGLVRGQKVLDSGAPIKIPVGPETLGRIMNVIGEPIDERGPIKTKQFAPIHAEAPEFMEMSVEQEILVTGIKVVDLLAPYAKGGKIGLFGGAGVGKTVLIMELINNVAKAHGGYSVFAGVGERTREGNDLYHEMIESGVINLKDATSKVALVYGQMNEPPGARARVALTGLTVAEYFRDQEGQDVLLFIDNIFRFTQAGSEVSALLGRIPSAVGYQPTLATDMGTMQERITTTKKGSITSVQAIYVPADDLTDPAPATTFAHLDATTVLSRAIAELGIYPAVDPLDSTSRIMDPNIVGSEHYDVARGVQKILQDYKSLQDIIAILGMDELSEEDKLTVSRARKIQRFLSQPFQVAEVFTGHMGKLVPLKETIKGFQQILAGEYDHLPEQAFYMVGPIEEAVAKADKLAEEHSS
# T1 sequence (P36542 26-298 partner): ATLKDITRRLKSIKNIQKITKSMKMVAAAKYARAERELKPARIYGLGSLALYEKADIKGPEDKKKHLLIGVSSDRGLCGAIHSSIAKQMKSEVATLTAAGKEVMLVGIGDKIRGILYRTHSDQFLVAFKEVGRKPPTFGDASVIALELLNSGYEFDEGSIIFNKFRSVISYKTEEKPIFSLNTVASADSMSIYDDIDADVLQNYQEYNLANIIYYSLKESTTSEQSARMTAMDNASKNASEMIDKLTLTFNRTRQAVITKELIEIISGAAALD
# T1 sequence (P30049 23-168 partner): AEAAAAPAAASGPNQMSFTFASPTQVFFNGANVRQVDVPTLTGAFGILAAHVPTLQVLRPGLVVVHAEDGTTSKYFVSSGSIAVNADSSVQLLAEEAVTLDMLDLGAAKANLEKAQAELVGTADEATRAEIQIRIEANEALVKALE
# T1 sequence (P56381 2-51 partner limits assumed): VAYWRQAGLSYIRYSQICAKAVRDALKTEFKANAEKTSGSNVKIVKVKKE
# [12] = system: E-selectin; details: proliferating endothelial cells; cited from earlier work
# [13] = system: corneal plasminogen synthesis; details: cornea; cited from earlier work
# [14] = system: tumor cells; details: cited from earlier work
molecule,measurement,setting,value
"CCCCC/C=C\C/C=C\C/C=C\C/C=C\CCCC(=O)O [AA, arachidonic acid]",growth of ascitic tumor cells in the peritoneum,[1],inhibit the growth
same,cellular uptake of anti-cancer drugs by the tumor cells,[2],enhance the cellular uptake
same,"cytotoxic action of doxorubicin, vincristine and cis-platinum",[2],augmented
same,killing of TNF resistant L-929 tumor cells,[3],able to kill
same,sensitisation of TNF-resistant L-929 cells to TNF,[3],rendered TNF sensitive
same,tumor cell proliferation,[4],decrease tumor cell proliferation
same,selective killing of tumor cells versus normal cells,[4],only tumor cells are killed
same,growth of skin papilloma,[5],inhibit the growth
same,formation and growth of hepatoma,[6],inhibit the growth
same,sensitisation of vincristine resistant KB-8-5 cells to vincristine,[7],made sensitive
same,selective tumoricidal action in mixed culture,[8],effective to some extent
"CC/C=C\C/C=C\C/C=C\CCCCCCCC(=O)O [ALA, alpha-linolenic acid]",selective killing of tumor cells versus normal cells,[4],only tumor cells are killed
"CCCCC/C=C\C/C=C\C/C=C\CCCCCCC(=O)O [DGLA, dihomo-GLA]",side effects of gamma-radiation and cis-platinum to bone marrow cells,[9],prevent or ameliorate the side effects
same,growth of ascitic tumor cells in the peritoneum,[1],inhibit the growth
same,cellular uptake of anti-cancer drugs by the tumor cells,[2],enhance the cellular uptake
same,"cytotoxic action of doxorubicin, vincristine and cis-platinum",[2],augmented
same,killing of TNF resistant L-929 tumor cells,[3],able to kill
same,sensitisation of TNF-resistant L-929 cells to TNF,[3],rendered TNF sensitive
same,tumor cell proliferation,[4],decrease tumor cell proliferation
same,selective killing of tumor cells versus normal cells,[4],only tumor cells are killed
same,growth of skin papilloma,[5],inhibit the growth
same,formation and growth of hepatoma,[6],inhibit the growth
same,sensitisation of vincristine resistant KB-8-5 cells to vincristine,[7],made sensitive
"CC/C=C\C/C=C\C/C=C\C/C=C\C/C=C\C/C=C\CCC(=O)O [DHA, docosahexaenoic acid]","cytotoxic action of doxorubicin, vincristine and cis-platinum",[2],augmented
"CC/C=C\C/C=C\C/C=C\C/C=C\C/C=C\CCCC(=O)O [EPA, eicosapentaenoic acid]",side effects of gamma-radiation and cis-platinum to bone marrow cells,[9],prevent or ameliorate the side effects
same,"cytotoxic action of doxorubicin, vincristine and cis-platinum",[2],augmented
"CCCCC/C=C\C/C=C\C/C=C\CCCCC(=O)O [GLA, gamma-linolenic acid]",side effects of gamma-radiation and cis-platinum to bone marrow cells,[9],prevent or ameliorate the side effects
same,growth of ascitic tumor cells in the peritoneum,[1],inhibit the growth
same,cellular uptake of anti-cancer drugs by the tumor cells,[2],enhance the cellular uptake
same,"cytotoxic action of doxorubicin, vincristine and cis-platinum",[2],augmented
same,killing of TNF resistant L-929 tumor cells,[3],able to kill
same,tumor cell proliferation,[4],decrease tumor cell proliferation
same,formation and growth of hepatoma,[6],inhibit the growth
"CCCCC/C=C\C/C=C\CCCCCCCC(=O)O [LA, linoleic acid]",selective killing of tumor cells versus normal cells,[4],only tumor cells are killed
CC\C=C/C=C/C=C/C=C\CCCCCCCC(=O)O [cis-parinaric acid],selective killing of tumor cells versus normal cells,[4],only tumor cells are killed
angiostatin®,size of the tumor,[10],significant reduction
same,survival,[10],increased survival
same,binding to alpha/beta sub-units of ATP synthase,[11],"bound in a concentration-dependent, saturable manner"
same,effect on expression of E-selectin,[12],4 to 5 fold
interleukin-6: cytokine,decrease of corneal plasminogen synthesis,[13],40%
vitamin E,"free radical generation and lipid peroxidation generated by PUFAs like GLA, EPA and DHA",[14],completely inhibit
